Results taken from patent publication US9023340B2, “Wnt inhibitors for human stem cell differentiation” (ChemRegen, Inc., priority 2011, dated 2015).

Experiments:
[1] = test system: hESC H9 lines carrying MYH6-mCherry reporters; test: Human embryonic stem cell high content screening assay (cardiogenesis, MYH6-mCherry reporter); format: cell-based; conditions: 1250 nM compound; MYH6-mCherry fluorescence readout normalized to DMSO treated wells
Protocol: Human embryonic stem cell (hESC) H9 lines carrying MYH6-mCherry reporters were maintained: in brief, cells were grown on a mouse embryonic fibroblast coated matrigel plate in Knock Out DMEM media supplemented with 20% Knock Out Serum Replacement and 8 ng/ml bFGF. For embryoid body (EB) differentiation, hESC were mechanically passaged onto gelatin-coated dishes preseeded with mouse embryonic fibroblasts. After 4 days hESC colonies were lifted off with a 10 minute 1 mg/ml collagenase IV treatment and directly differentiated in StemPro 34 with addition of 0.5 ng/ml Bmp4 from day 0-1, 10 ng/ml Bmp4, 5 ng/ml bFGF and 3 ng/ml Activin A from day 1-4. At day 4 and were dissociated gently to single cells with TrypLE. Single cells were then transferred in gelatin coated 384-well optical plates in StemPro 34 with […] FGF at a seeding density of 250,000 cells/cm^2. At this point cells were exposed to test compounds. At day 10, media with compound was removed and exchanged for a serum free media (SFM). T3, the thyroid hormone analog triiodothyronine, was added at day 10 to increase the red signal driven by the MYH6 promoter for more reliable imaging. […] For RT-qPCR analysis T3 treatment was omitted to avoid interference with the biological mRNA expression of MYH6. Media was changed to PBS at day 14 and red fluorescence was imaged on an InCell 1000 high throughput microscope. For the quantification of cardiac induction, image analysis was done with the Cyteseer Image Analysis Software package by measuring the total area and intensity of the MYH6-mCherry reporter in each well. The MYH6-expression levels indicated in the graphs represent the multiplication of the total area and intensity of red fluorescence.
For toxicity assessment the hESC cell line was engineered for screening with a H2B-GFP reporter, allowing quantification of the cell number. Using Cyteseer, total GFP signal was quantified in each well. Wells with a GFP reduction of 20% or more (relative to vehicle only controls) were flagged for toxicity and were manually confirmed under a bright field microscope for evidence of cell death.
For the screens, Z scores (Z score=(average of treated−average of DMSO)/StDev of DMSO) were calculated using the fluorescence readout for each concentration normalized to DMSO treated wells. Integrated Z scores over all concentrations were calculated by adding the Z scores of the 3 concentrations tested. Table 2 reports Z scores at a compound concentration of 1250 nM.

[2] = test system: Wnt signaling; test: Wnt assay (Super TOPflash/Wnt3a dual-luciferase reporter in 293T cells); format: cell-based; conditions: Homo sapiens, HEK-293T, TOPflash luciferase normalized to renilla; for inhibition at 1 µM: 1000 nM compound, read-out: Wnt Assay % inh. @ 1000 nM
Protocol: Wnt assay protocol: 293T cells were grown in DMEM-high glucose (phenol red) supplemented with 10% (v/v) FBS and 1 mM L-glutamine. 1 million (M) cells were transfected with 1 μg Super(7×)TOPflash (Addgene plasmid 12456: M50 Super 8× TOPflash; 1 μg Wnt3a)—and 0.1 μg TK-Renilla-Lux (pRL-TK vector)-vectors using lipofectamine 2000 reagent according to the manufacturer's protocol. Cells were allowed to adhere for 8-10 hours, lifted with trypsin/EDTA, centrifuged, homogenized and counted before seeding 25,000 cells/well onto 96-well plates. After letting cells settle and attach for 1-2 hours in the incubator, a dose of test compound (and media/DMSO controls) was added. Plates were incubated for 18-20 hours and luciferase activities were determined using a Dual-Luciferase assay kit according to the manufacturer's instructions. Chemiluminescence was recorder on a plate reader instrument, and firefly-derived luminescence was normalized against renilla luminescence. Data were derived from at least two independent experiments, with a minimum of three replicates per condition. Non-linear regression analysis (log dose/response) was done using Prism 5 software.

With `O=C1[C@@H]2[C@@H]3CC[C@@H](C3)[C@@H]2C(=O)N1[C@H]1CC[C@H](C(=O)Nc2cccnc2)CC1` [Compound 1] the “Cardiogenesis Assay Z score vs DMSO @ 1250 nM” value [1] was 0.6 and the IC50 [2] was 42 nM.
For `O=C1[C@@H]2[C@@H]3CC[C@@H](C3)[C@@H]2C(=O)N1[C@H]1CC[C@H](C(=O)Nc2ccncc2)CC1` [Compound 2], the “Cardiogenesis Assay Z score vs DMSO @ 1250 nM” value [1] was 0.2 and the IC50 [2] was 47 nM.
In the case of `CC(=O)c1ccccc1NC(=O)[C@H]1CC[C@H](N2C(=O)[C@@H]3[C@@H]4CC[C@@H](C4)[C@@H]3C2=O)CC1` [Compound 3], the “Cardiogenesis Assay Z score vs DMSO @ 1250 nM” value [1] is reported as 132.9, the inhibition at 1 µM [2] is reported as 91 ± 1% and the IC50 [2] is reported as 14 nM.
In the case of `O=C1[C@@H]2[C@@H]3CC[C@@H](C3)[C@@H]2C(=O)N1[C@H]1CC[C@H](C(=O)Nc2ccccn2)CC1` [Compound 4], the “Cardiogenesis Assay Z score vs DMSO @ 1250 nM” value [1] is reported as 1.8 and the IC50 [2] is reported as 86 nM.
`COc1ccc(NC(=O)[C@H]2CC[C@H](N3C(=O)[C@@H]4[C@@H]5CC[C@@H](C5)[C@@H]4C3=O)CC2)cn1` [Compound 5] gave an inhibition at 1 µM [2] of 75 ± 2% and an IC50 [2] of 344 nM.
In the case of `Cc1ccc(NC(=O)[C@H]2CC[C@H](N3C(=O)[C@@H]4[C@@H]5CC[C@@H](C5)[C@@H]4C3=O)CC2)cn1` [Compound 6], the inhibition at 1 µM [2] is reported as 48 ± 7% and the IC50 [2] is reported as 1380 nM.
For `O=C1[C@@H]2[C@@H]3CC[C@@H](C3)[C@@H]2C(=O)N1[C@H]1CC[C@H](C(=O)Nc2cccnc2Cl)CC1` [Compound 7], the “Cardiogenesis Assay Z score vs DMSO @ 1250 nM” value [1] was 3.1 and the IC50 [2] was 166 nM.
`O=C1[C@@H]2[C@@H]3CC[C@@H](C3)[C@@H]2C(=O)N1[C@H]1CC[C@H](C(=O)Nc2ccc(C(F)(F)F)nc2)CC1` [Compound 8] was tested, and the inhibition at 1 µM [2] was 46 ± 7% and the IC50 [2] was 870 nM.
`O=C1[C@@H]2[C@@H]3CC[C@@H](C3)[C@@H]2C(=O)N1[C@H]1CC[C@H](C(=O)Nc2ccnc(Cl)c2)CC1` [Compound 9] showed an inhibition at 1 µM [2] of 68 ± 4% and an IC50 [2] of 374 nM.
For `COC(=O)c1ccccc1NC(=O)[C@H]1CC[C@H](N2C(=O)[C@@H]3[C@@H]4CC[C@@H](C4)[C@@H]3C2=O)CC1` [Compound 10], the “Cardiogenesis Assay Z score vs DMSO @ 1250 nM” value [1] was 44.9 and the IC50 [2] was 67 nM.
For `O=C1c2ccccc2-c2cccc(NC(=O)[C@H]3CC[C@H](N4C(=O)[C@@H]5[C@@H]6CC[C@@H](C6)[C@@H]5C4=O)CC3)c21` [Compound 11], the “Cardiogenesis Assay Z score vs DMSO @ 1250 nM” value [1] was 42.7 and the IC50 [2] was 193 nM.
With `CC(=O)c1ccccc1NC(=O)C1CCC(N2C(=O)[C@@H]3[C@@H]4CC[C@@H](C4)[C@@H]3C2=O)CC1` (stereo partly shown) [Compound 12] the “Cardiogenesis Assay Z score vs DMSO @ 1250 nM” value [1] was 117.0, the inhibition at 1 µM [2] was 91 ± 1% and the IC50 [2] was 23 nM.
In the case of `O=C1[C@@H]2[C@@H]3CC[C@@H](C3)[C@@H]2C(=O)N1[C@H]1CC[C@H](C(=O)Nc2cncc(O)c2)CC1` [Compound 13], the “Cardiogenesis Assay Z score vs DMSO @ 1250 nM” value [1] is reported as 99.2 and the IC50 [2] is reported as 152 nM.
For `O=C1CCCc2cccc(NC(=O)[C@H]3CC[C@H](N4C(=O)[C@@H]5[C@@H]6CC[C@@H](C6)[C@@H]5C4=O)CC3)c21` [Compound 14], the “Cardiogenesis Assay Z score vs DMSO @ 1250 nM” value [1] was 69.6 and the IC50 [2] was 19 nM.
For `CC(=O)c1ncccc1NC(=O)[C@H]1CC[C@H](N2C(=O)[C@@H]3[C@@H]4CC[C@@H](C4)[C@@H]3C2=O)CC1` [Compound 17], the “Cardiogenesis Assay Z score vs DMSO @ 1250 nM” value [1] was 236.2 and the IC50 [2] was 2 nM.
In the case of `CC(=O)c1ccncc1NC(=O)[C@H]1CC[C@H](N2C(=O)[C@@H]3[C@@H]4CC[C@@H](C4)[C@@H]3C2=O)CC1` [Compound 18], the “Cardiogenesis Assay Z score vs DMSO @ 1250 nM” value [1] is reported as 0.2 and the IC50 [2] is reported as 287 nM.
`O=C1[C@@H]2[C@@H]3CC[C@@H](C3)[C@@H]2C(=O)N1[C@H]1CC[C@H](C(=O)Nc2ccc(Br)cn2)CC1` [Compound 19] gave an inhibition at 1 µM [2] of 68 ± 4%.
`Cc1ccncc1NC(=O)[C@H]1CC[C@H](N2C(=O)[C@@H]3[C@@H]4CC[C@@H](C4)[C@@H]3C2=O)CC1` [Compound 20] showed an inhibition at 1 µM [2] of 0%.
With `Cc1cncc(NC(=O)[C@H]2CC[C@H](N3C(=O)[C@@H]4[C@@H]5CC[C@@H](C5)[C@@H]4C3=O)CC2)c1` [Compound 21] the inhibition at 1 µM [2] was 49 ± 5%.
